This data set relates to rodent carcinogenicity bioassays, tumor incidence. Description: CCRIS carcinogenicity studies. The conditions noted are these: Dose: 0, Dose: 0. The method, boiled down: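 NCI-built, expert-reviewed records of carcinogenicity and related test outcomes (mutagenicity, tumor promotion/inhibition) compiled from published and report sources, historical span 1985-2011, not updated.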

This is an account of results in PubChem BioAssay AID1259411 (Chemical Carcinogenesis Research Information System (CCRIS), 2018).

Active and inactive are the calls of the source. How the calls were made is not given here.

Take `OC(O)C(Cl)(Cl)Cl`: the carcinogen call is “inactive; negative” (Species: MOUSE, Strain/Sex: B6C3F1/FEMALE, Route: GAVAGE, 10, 25, 50 MG/KG BW ONCE AT 15 DAYS OF AGE (STUDY DURATION: 104 WK), 10, 25, 50 MG/KG BW ONCE AT 15 DAYS OF AGE (STUDY DURATION: 104 WK)); “equivocal” (Species: MOUSE, Strain/Sex: B6C3F1/FEMALE, Route: GAVAGE, 25, 50, 100 MG/KG 5 D/WK FOR 104 WK (STUDY DURATION: 104 WK), 25, 50, 100 MG/KG 5 D/WK FOR 104 WK (STUDY DURATION: 104 WK), Tumor Site: Type of Lesion: PITUITARY GLAND (PARS DISTALIS): ADENOMA); “inactive; negative” (Species: MOUSE, Strain/Sex: B6C3F1/FEMALE, Route: GAVAGE, 25, 50, 100 MG/KG BW ONCE AT 28 DAYS OF AGE (STUDY DURATION: 104 WK), 25, 50, 100 MG/KG BW ONCE AT 28 DAYS OF AGE (STUDY DURATION: 104 WK)); “equivocal” (Species: MOUSE, Strain/Sex: B6C3F1/FEMALE, Route: GAVAGE, 100 MG/KG BW 5 D/WK FOR 3 MO (STUDY DURATION: 104 WK), Tumor Site: Type of Lesion: PITUITARY GLAND (PARS DISTALIS): ADENOMA); “equivocal” (Species: MOUSE, Strain/Sex: B6C3F1/FEMALE, Route: GAVAGE, 100 MG/KG BW 5 D/WK FOR 6 MO (STUDY DURATION: 104 WK), Tumor Site: Type of Lesion: PITUITARY GLAND (PARS DISTALIS): ADENOMA); “equivocal” (Species: MOUSE, Strain/Sex: B6C3F1/FEMALE, Route: GAVAGE, 100 MG/KG BW 5 D/WK FOR 12 MO (STUDY DURATION: 104 WK), Tumor Site: Type of Lesion: PITUITARY GLAND (PARS DISTALIS): ADENOMA). The carcinogen call is, setting by setting: (Species: MOUSE, Strain/Sex: B6C3F1/FEMALE, Route: INTRAPERITONEAL, 1000 NMOL TOTAL DOSE, 1/3 AND 2/3 OF THE TOTAL DOSE ADMINISTERED AT 8 AND 15 DAYS OF AGE RESPECTIVELY, ANIMALS TERMIN) “inactive; negative”; (Species: MOUSE, Strain/Sex: B6C3F1/FEMALE, Route: INTRAPERITONEAL, 2000 NMOL TOTAL DOSE, 3/7 AND 4/7 OF THE TOTAL DOSE ADMINISTERED AT 8 AND 15 DAYS OF AGE RESPECTIVELY, ANIMALS TERMIN) “inactive; negative”; (Species: MOUSE, Strain/Sex: B6C3F1/MALE, Route: GAVAGE, 10, 25, 50 MG/KG BW ONCE AT 15 DAYS OF AGE (STUDY DURATION: 104 WK), 10, 25, 50 MG/KG BW ONCE AT 15 DAYS OF AGE (STUDY DURATION: 104 WK)) “inactive; negative”; (Species: MOUSE, Strain/Sex: B6C3F1/MALE, Route: GAVAGE, 25, 50, 100 MG/KG IN WATER 5X/WK FOR STUDY DURATION WITH AD LIBITUM FEEDING (STUDY DURATION: 104-105 WK), 25, 50, 100 MG/KG IN WATER 5X/WK FOR STUDY DURATION WITH AD LIBITUM FEEDING (STUDY DURATION: 104-105 WK), Tumor Site: Type of Lesion: LIVER: HEPATOCELLULAR ADENOMA OR CARCINOMA) “active; positive”; (Species: MOUSE, Strain/Sex: B6C3F1/MALE, Route: GAVAGE, 25, 50, 100 MG/KG IN WATER 5X/WK FOR STUDY DURATION WITH DIETARY-CONTROLLED FEEDING TO MAINTAIN IDEAL BODY WEIGHT (ST, 25, 50, 100 MG/KG IN WATER 5X/WK FOR STUDY DURATION WITH DIETARY-CONTROLLED FEEDING TO MAINTAIN IDEAL BODY WEIGHT (ST, Tumor Site: Type of Lesion: LIVER: HEPATOCELLULAR ADENOMA OR CARCINOMA) “active; positive”; (Species: MOUSE, Strain/Sex: B6C3F1/MALE, Route: INTRAPERITONEAL, 1000 NMOL TOTAL DOSE, 1/3 AND 2/3 OF THE TOTAL DOSE ADMINISTERED AT 8 AND 15 DAYS OF AGE RESPECTIVELY, ANIMALS TERMIN) “inactive; negative”. For the same molecule, the carcinogen call is “inactive; negative” (Species: MOUSE, Strain/Sex: B6C3F1/MALE, Route: INTRAPERITONEAL, 2000 NMOL TOTAL DOSE, 3/7 AND 4/7 OF THE TOTAL DOSE ADMINISTERED AT 8 AND 15 DAYS OF AGE RESPECTIVELY, ANIMALS TERMIN); “active; positive” (Species: MOUSE, Strain/Sex: B6C3F1/MALE, Route: ORAL, 0.05, 0.5, 1 G/L IN DRINKING WATER FOR 104 WK (STUDY DURATION: 104 WK), 0.05, 0.5, 1 G/L IN DRINKING WATER FOR 104 WK (STUDY DURATION: 104 WK), Tumor Site: Type of Lesion: LIVER: HEPATOCELLULAR ADENOMA OR CARCINOMA); “active; positive” (Species: MOUSE, Strain/Sex: B6C3F1/MALE, Route: ORAL, 1 G/L DISTILLED DRINKING WATER FOR STUDY DURATION (166 MG/KG/D) (STUDY DURATION: 104 WK), Tumor Site: Type of Lesion: LIVER: HEPATOCELLULAR CARCINOMA, HEPATOCELLULAR ADENOMA); “inactive; negative” (Species: RAT, Strain/Sex: F344/N/MALE, Route: ORAL, 0.05, 0.5, 2 G/L IN DRINKING WATER FOR 104 WK (STUDY DURATION: 104 WK), 0.05, 0.5, 2 G/L IN DRINKING WATER FOR 104 WK (STUDY DURATION: 104 WK)); “inactive; negative” (Species: RAT, Strain/Sex: SPRAGUE-DAWLEY/FEMALE, Route: ORAL, 15, 45, 135 MG/KG BW/D IN DRINKING WATER FOR 128 WK (STUDY DURATION: 128 WK), 15, 45, 135 MG/KG BW/D IN DRINKING WATER FOR 128 WK (STUDY DURATION: 128 WK)); “inactive; negative” (Species: RAT, Strain/Sex: SPRAGUE-DAWLEY/MALE, Route: ORAL, 15, 45, 135 MG/KG BW/D IN DRINKING WATER FOR 124 WK (STUDY DURATION: 124 WK), 15, 45, 135 MG/KG BW/D IN DRINKING WATER FOR 124 WK (STUDY DURATION: 124 WK)).

Consider `CC1CN(N=O)CCO1` (configuration not stated), for which, where the note is “Species: HAMSTER, Strain/Sex: SYRIAN/MALE, Route: INTRAGASTRIC, 27 MG/ML IN 0.2 ML STERILIZED WATER 1/WK FOR 30 WK (TOTAL DOSE 162 MG) (STUDY DURATION: LIFESPAN), Tumor Site: Type of Lesion: LIVER: HEMANGIOSARCOMA, NASAL CAVITY: CARCINOMA, LUNG: CARCINOMA, ADENOMA, FORESTOMACH: PAPILLOMA, TRACHEA: ADENOMA, Tumor Site: Type of Lesion: LIVER: HEMANGIOSARCOMA, NASAL CAVITY: CARCINOMA, LUNG: CARCINOMA, ADENOMA, FORESTOMACH: PAPILLOMA, TRACHEA: ADENOMA”, the carcinogen call is “active; positive”.

As to `Cc1c(COC(=O)[C@@H]2[C@H](/C=C(\Cl)C(F)(F)F)C2(C)C)cccc1-c1ccccc1`, the carcinogen call is “inactive; negative; purity 88.35% (98% cis- and 2% trans-isomer)” (Species: Mouse, Strain/Sex: Swiss-Webster Derived Tac(SW)fBR/Female (50/sex/group), Route: Oral, 50, 200, 500, 600 ppm in feed for 20-21 months, 50, 200, 500, 600 ppm in feed for 20-21 months); “active; positive; purity 88.35% (98% cis- and 2% trans-isomer)” (Species: Mouse, Strain/Sex: Swiss-Webster Derived Tac(SW)fBR/Male (50/sex/group), Route: Oral, 50, 200, 500, 600 ppm in feed for 20-21 months, 50, 200, 500, 600 ppm in feed for 20-21 months, Tumor Site: Type of Lesion: Urinary bladder: Leiomyosarcoma (Dose related increase, 29% at 600 ppm)); “inactive; negative; purity 88.35% (98% cis- and 2% trans-isomer)” (Species: Rat, Strain/Sex: Sprague-Dawley/Female (50/sex/group), Route: Oral, 12, 50, 100, 200 ppm in feed for 2 yr, 12, 50, 100, 200 ppm in feed for 2 yr); “inactive; negative; purity 88.35% (98% cis- and 2% trans-isomer)” (Species: Rat, Strain/Sex: Sprague-Dawley/Male (60/group), Route: Oral, 12, 50, 100, 200 ppm in feed for 2 yr, 12, 50, 100, 200 ppm in feed for 2 yr).

As to `CC(=NC#N)N(C)Cc1ccc(Cl)nc1`, the carcinogen call is “inactive; negative” (Species: Mouse, Strain/Sex: Crl:CD-1 (ICR)BR/Female, Route: Oral, 130, 400, 1200 ppm (0; 25; 76; 215 mg/kg/day) in feed for 18 mo, 130, 400, 1200 ppm (0; 25; 76; 215 mg/kg/day) in feed for 18 mo); “inactive; negative” (Species: Mouse, Strain/Sex: Crl:CD-1 (ICR)BR/Male, Route: Oral, 130, 400, 1200 ppm (0; 20; 66; 186 mg/kg/day) in feed for 18 mo, 130, 400, 1200 ppm (0; 20; 66; 186 mg/kg/day) in feed for 18 mo); “inactive; negative” (Species: Rat, Strain/Sex: Crl:CD BR/Female, Route: Oral, 160, 400, 1000 ppm (0; 8.8; 22.6; 60.0 mg/kg/day) in feed for 2 yr, 160, 400, 1000 ppm (0; 8.8; 22.6; 60.0 mg/kg/day) in feed for 2 yr); “inactive; negative” (Species: Rat, Strain/Sex: Crl:CD BR/Male, Route: Oral, 160, 400, 1000 ppm (0; 7.1; 17.5; 46.4 mg/kg/day) in feed for 2 yr, 160, 400, 1000 ppm (0; 7.1; 17.5; 46.4 mg/kg/day) in feed for 2 yr).
